Source: ChEMBL document CHEMBL1130057, “Tyrosine kinase inhibitors. 12. Synthesis and structure-activity relationships for 6-substituted 4-(phenylamino)pyrimido[5,4-d]pyrimidines designed as inhibitors of the epidermal growth factor receptor” (J Med Chem, 1997)
pIC50: −log10 of the molar value.

Key:
[1] = biological target: T1, Epidermal growth factor receptor (Homo sapiens, UniProt P00533); assay: Inhibition of phosphorylation of phospholipase C gamma1 by Epidermal growth factor receptor, from human A431 carcinoma cell vesicles
[2] = biological target: T1, Epidermal growth factor receptor; assay: Tested for ability to inhibit autophosphorylation of the Epidermal growth factor receptor in human epidermoid carcinoma cells
[3] = biological target: T1, Epidermal growth factor receptor; assay: Tested for inhibition of PLC gamma-derived substrate in Epidermal growth factor receptor stimulated A431 cells
[4] = biological target: T1, Epidermal growth factor receptor; assay: Tested for inhibition of autophosphorylation in Epidermal growth factor receptor stimulated A431 cells

T1 sequence (P00533 whole entry): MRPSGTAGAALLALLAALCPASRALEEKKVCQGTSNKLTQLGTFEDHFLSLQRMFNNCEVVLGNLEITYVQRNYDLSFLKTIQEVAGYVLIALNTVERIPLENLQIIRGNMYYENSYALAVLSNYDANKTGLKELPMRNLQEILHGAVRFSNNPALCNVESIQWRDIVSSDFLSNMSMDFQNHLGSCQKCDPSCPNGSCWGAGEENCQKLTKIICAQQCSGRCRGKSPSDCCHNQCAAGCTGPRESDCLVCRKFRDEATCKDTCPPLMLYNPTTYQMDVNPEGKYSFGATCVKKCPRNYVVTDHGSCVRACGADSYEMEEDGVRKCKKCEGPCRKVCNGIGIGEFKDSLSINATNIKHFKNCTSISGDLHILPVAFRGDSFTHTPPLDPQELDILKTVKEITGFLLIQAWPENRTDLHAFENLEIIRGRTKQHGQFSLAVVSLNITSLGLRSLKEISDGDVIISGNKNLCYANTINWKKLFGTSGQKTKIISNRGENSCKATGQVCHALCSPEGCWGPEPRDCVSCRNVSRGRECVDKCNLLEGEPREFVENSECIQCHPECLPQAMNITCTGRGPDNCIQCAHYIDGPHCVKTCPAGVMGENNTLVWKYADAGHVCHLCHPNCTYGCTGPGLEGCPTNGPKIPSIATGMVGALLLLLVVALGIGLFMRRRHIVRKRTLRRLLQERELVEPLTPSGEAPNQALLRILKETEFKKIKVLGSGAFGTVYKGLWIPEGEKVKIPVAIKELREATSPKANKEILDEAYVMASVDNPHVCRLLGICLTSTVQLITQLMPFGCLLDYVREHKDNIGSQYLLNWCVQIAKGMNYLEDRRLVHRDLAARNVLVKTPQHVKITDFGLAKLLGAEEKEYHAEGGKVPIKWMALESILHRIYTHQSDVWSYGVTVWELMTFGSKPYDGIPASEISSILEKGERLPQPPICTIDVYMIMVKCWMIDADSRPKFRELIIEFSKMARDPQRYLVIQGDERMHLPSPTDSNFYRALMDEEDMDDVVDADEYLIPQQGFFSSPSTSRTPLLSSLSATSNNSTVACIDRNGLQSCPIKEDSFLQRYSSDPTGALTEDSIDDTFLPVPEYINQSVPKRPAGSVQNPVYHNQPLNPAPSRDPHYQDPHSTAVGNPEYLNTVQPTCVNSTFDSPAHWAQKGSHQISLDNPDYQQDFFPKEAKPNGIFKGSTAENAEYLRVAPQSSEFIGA

Structure (SMILES)	pIC50 [1]	other results
Cc1cccc(Nc2ncnc3cnc(Cl)nc23)c1	6.42	–
Brc1cccc(Nc2ncnc3cnc(NCCc4c[nH]cn4)nc23)c1	9.60	pIC50 [2]: 8.29
Cc1cccc(Nc2ncnc3cnc(N)nc23)c1	7.77	–
Brc1cccc(Nc2ncnc3cnc(NCCN4CCOCC4)nc23)c1	9.09	pIC50 [2]: 8.51
Clc1ncc2ncnc(Nc3ccccc3)c2n1	5.59	–
CN(C)CCNc1ncc2ncnc(Nc3cccc(Br)c3)c2n1	7.46	–
CNc1ccc2ncnc(Nc3cccc(Br)c3)c2c1	–	pIC50 [3]: 7.96
Clc1ncc2ncnc(Nc3cccc(Br)c3)c2n1	7.09	–
CN(C)c1cc2c(Nc3cccc(Br)c3)ncnc2cn1	–	pIC50 [3]: 8.59; pIC50 [4]: 7.92

The next lines start with results.

pIC50 [1]	Structure (SMILES)	other results
8.82	Nc1ncc2ncnc(Nc3cccc(Br)c3)c2n1	–
8.42	COc1ncc2ncnc(Nc3cccc(Br)c3)c2n1	–
7.89	CNc1ncc2ncnc(Nc3ccccc3)c2n1	–
8.40	Cc1cccc(Nc2ncnc3cnc(N(C)C)nc23)c1	–
8.52	Cc1cccc(Nc2ncnc3cnc(NCCc4c[nH]cn4)nc23)c1	–
9.12	CNc1ncc2ncnc(Nc3cccc(Br)c3)c2n1	pIC50 [2]: 7.52
8.64	Cc1cccc(Nc2ncnc3cnc(NCCN4CCOCC4)nc23)c1	–
8.64	Brc1cccc(Nc2ncnc3cnc(NCCCn4ccnc4)nc23)c1	–
